Experimental data from patent publication US8546381B2, “Bridged heterocyclic compounds and methods of use” (Medivation Technologies, Inc., priority 2008, dated 2013).

Target: T1, human recombinant serotonin (5-Hydroxytryptamine) 5-HT5A receptor (Homo sapiens, UniProt P47898)
T1 construct: expressed in transfected cells; host or cells: CHO-K1 cells
Test: Serotonin 5-HT5A radioligand binding ([3H]LSD)
Conditions: read-out: Serotonin 5-HT5A, inhibition of ligand binding (1 μM)
Description: To evaluate in radioligand binding assays the activity of compounds of the invention, human recombinant serotonin (5-Hydroxytryptamine) 5-HT5A receptor expressed in Chinese hamster ovary (CHO-K1) cells (Rees, S. et al., FEBS Lett. 355:242, 1994) in a modified Tris-HCl buffer (50 mM Tris-HCl, pH 7.4, 10 mM MgCl2, 0.5 mM EDTA) was used. Compounds of the invention were incubated with 1.7 nM [^3H]Lysergic acid diethylamide (LSD) for 60 minutes at 37° C. Non-specific binding was estimated in the presence of 100 μM Serotonin (5-HT). Receptor proteins were filtered and washed, the filters were then counted to determine [^3H]LSD specifically bound. Compounds were screened at 1 μM or lower, using 1% DMSO as vehicle. Compounds of the invention were tested in this biochemical assay and percent inhibition of specific binding was determined. Biochemical assay results are presented as the percent inhibition of specific binding in Table 4.

T1 sequence (P47898 whole entry): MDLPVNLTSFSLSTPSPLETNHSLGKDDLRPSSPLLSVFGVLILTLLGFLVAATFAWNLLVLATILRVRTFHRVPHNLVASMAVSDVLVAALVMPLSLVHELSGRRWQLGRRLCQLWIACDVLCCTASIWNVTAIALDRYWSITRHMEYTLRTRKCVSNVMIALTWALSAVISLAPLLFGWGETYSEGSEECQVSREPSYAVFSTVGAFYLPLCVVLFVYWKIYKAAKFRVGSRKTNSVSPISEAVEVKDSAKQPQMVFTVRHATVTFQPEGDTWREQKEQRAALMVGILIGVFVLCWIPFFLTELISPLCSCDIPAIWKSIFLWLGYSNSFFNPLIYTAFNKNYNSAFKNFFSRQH

Row | Compound | inhibition at 1 µM [%]
1 | Cc1ccc2c(c1)c1c(n2CCc2ccccc2)CC2CCC1N2C (stereo not shown) [Compound 2] | 86
2 | Cc1ccc2c(c1)c1c(n2CCc2ccccc2)CC2CCCC1N2C (stereo not shown) [Compound 56] | 40
3 | CN1C2CCC1c1c(n(CCc3ccc(F)cc3)c3ccc(Cl)cc13)C2 (stereo not shown) [Compound 57] | 48
4 | CN1C2CCC1c1c(n(CCc3ccc(Cl)cc3)c3ccc(Cl)cc13)C2 (stereo not shown) [Compound 58] | 69
